Test systems include HCT-116; KM12; SF-295; DU-145; MDA-N; SK-MEL-5; IGROV-1; OVCAR-5; SNB-19; A498; OVCAR-4; NCI-H226; HT-29; SF-539; LOX IMVI; M14; CAKI-1; NCI-H522; NCI-H460; UACC-62.
Common to all, as to experiment: growth of human tumour cells (NCI), 48 h

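Briefly, cells in 96-well plates were exposed to five compound concentrations for 48 h, and endpoints were estimated by linear interpolation. Here, GI50 denotes the concentration required for 50% inhibition of growth.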 Active and inactive are the calls of the source. Rule as the data show it: active = GI50 up to about 1.1 µM and inactive = higher. Bounds are passed on as bounds.

Consider `COc1ccc2oc(=N)c(C(=O)NCc3ccccc3)cc2c1`, for which the GI50 is 30.1 µM (inactive) in the test on HCT-116; 13.3 µM (inactive) with KM12; 24.7 µM (inactive) in the test with SF-295; 24.3 µM (inactive) in the test on DU-145; 19.8 µM (inactive) in the test on MDA-N; 27.9 µM (inactive) with SK-MEL-5. In addition, the GI50 in the test on IGROV-1 is 19.9 µM (inactive); with OVCAR-5, 43.6 µM (inactive); with SNB-19 it was 27.4 µM (inactive); with A498, 15.2 µM (inactive); with OVCAR-4 it was 34.8 µM (inactive); in the test on NCI-H226 it was 22.7 µM (inactive). The GI50 with HT-29 was 34.7 µM (inactive); with SF-539, 25.2 µM (inactive); in the test with LOX IMVI, 38.6 µM (inactive); in the test on M14, 33.2 µM (inactive); in the test with CAKI-1, 34.6 µM (inactive); in the test on NCI-H522 it was 19.5 µM (inactive). Moreover, the GI50 in the test with NCI-H460 is 28.5 µM (inactive).
On to `COC1=C(OC)C(=O)C(Cc2c(Cl)nc3n2CCS3)=C(C)C1=O`, for which the GI50 with HCT-116 is 11.7 µM (inactive); in the test with KM12 it was 14 µM (inactive); in the test with SF-295 it was 14.8 µM (inactive); with DU-145, 17.2 µM (inactive); in the test with MDA-N, 13.9 µM (inactive); with SK-MEL-5, 11.7 µM (inactive). Also, the GI50 in the test with UACC-62 is 12.1 µM (inactive); in the test with IGROV-1, 16.9 µM (inactive); with OVCAR-5 it was 17.6 µM (inactive); with SNB-19, 16.2 µM (inactive); in the test on A498 it was 18.9 µM (inactive); with OVCAR-4 it was 7.73 µM (inactive). Besides, the GI50 was 17 µM (inactive) in the test with HT-29; 14.6 µM (inactive) with SF-539; 6.35 µM (inactive) in the test on LOX IMVI; 13.1 µM (inactive) with M14; 16.6 µM (inactive) in the test with CAKI-1; 11.6 µM (inactive) in the test with NCI-H522. Moreover, in the test with NCI-H460, the GI50 is 15 µM (inactive).
With `CC1=NN=C(N)N/C1=C\C(Sc1ccc(Cl)cc1)c1ccc([N+](=O)[O-])cc1` (stereo not drawn), the GI50 in the test on HCT-116 was 39.8 µM (inactive); in the test with KM12, 94 µM (inactive); in the test on SF-295, > 100 µM (inactive); in the test with DU-145, > 100 µM (inactive); in the test on MDA-N, 89.1 µM (inactive); in the test on SK-MEL-5, 74.5 µM (inactive). The GI50 in the test with UACC-62 was 91.6 µM (inactive); in the test on IGROV-1, 39.1 µM (inactive); in the test with OVCAR-5 it was > 100 µM (inactive); in the test with SNB-19 it was > 100 µM (inactive); with A498, > 100 µM (inactive); in the test with OVCAR-4, > 100 µM (inactive). Also, the GI50 in the test with NCI-H226 was 20.8 µM (inactive); with HT-29, > 100 µM (inactive); in the test with LOX IMVI, 51.8 µM (inactive); in the test with M14 it was 62.1 µM (inactive); with CAKI-1 it was > 100 µM (inactive); in the test on NCI-H522, 26.9 µM (inactive). In the test on NCI-H460, the GI50 was > 100 µM (inactive).
`C[C@@H](NC(=O)OC1C=CC2(CC1)C(=O)N(C)c1ccccc12)c1cccc2ccccc12` (stereo partly drawn): the GI50 in the test on HCT-116 is 4.56 µM (inactive); in the test with KM12 it was 11.6 µM (inactive); in the test with SF-295, 12.7 µM (inactive); with DU-145, > 25 µM (inactive); in the test on MDA-N, 15.5 µM (inactive); in the test with SK-MEL-5 it was 5.32 µM (inactive). The GI50 was > 25 µM (inactive) in the test on UACC-62; 4.86 µM (inactive) in the test on IGROV-1; > 25 µM (inactive) in the test on OVCAR-5; > 25 µM (inactive) with SNB-19; > 25 µM (inactive) in the test with A498; 16.3 µM (inactive) in the test with OVCAR-4. Further, the GI50 was 21.8 µM (inactive) in the test on NCI-H226; > 25 µM (inactive) with HT-29; 19.7 µM (inactive) in the test with LOX IMVI; 14.4 µM (inactive) in the test with M14; > 25 µM (inactive) in the test with CAKI-1; 5.24 µM (inactive) in the test on NCI-H522. In addition, in the test with NCI-H460, the GI50 is 18.2 µM (inactive).
As to `Cc1nc2c(nc1C)-c1[nH]c3c(c1C(=O)C2=O)CCCC3=O`, the GI50 with HCT-116 was 2.54 µM (inactive); in the test with KM12 it was 1.95 µM (inactive); in the test with SF-295, 1.79 µM (inactive); in the test on DU-145, 4.49 µM (inactive); in the test on MDA-N, 0.685 µM (active); in the test on SK-MEL-5, 1.49 µM (inactive). Further, the GI50 with UACC-62 is 1.71 µM (inactive); with IGROV-1, 2.55 µM (inactive); with OVCAR-5, 2.18 µM (inactive); in the test on SNB-19, 2.33 µM (inactive); in the test on A498, 8.3 µM (inactive); in the test with OVCAR-4 it was 1.6 µM (inactive). For the same molecule, the GI50 in the test with NCI-H226 is 1.62 µM (inactive); with HT-29, 5.74 µM (inactive); in the test with SF-539, 1.68 µM (inactive); with LOX IMVI, 0.957 µM (active); in the test on M14, 1.77 µM (inactive); with NCI-H522 it was 2.1 µM (inactive). For the same molecule, the GI50 with NCI-H460 is 3.94 µM (inactive).
On to `Cc1ccc(C)c(COCCOCn2ccc(N)nc2=O)c1`, for which the GI50 in the test with HCT-116, in the test on KM12, with SF-295, with DU-145, with MDA-N and in the test with UACC-62 was > 100 µM (inactive) each time. Besides, the GI50 with IGROV-1, with OVCAR-5, in the test with SNB-19, in the test on A498, with NCI-H226 and in the test with SF-539 was > 100 µM (inactive) in each case. The GI50 in the test on LOX IMVI, in the test with M14, in the test on CAKI-1, with NCI-H522 and in the test on NCI-H460 was > 100 µM (inactive) in each case.
Consider `O=c1[nH]nc(-c2ccccc2)n1-c1ccncc1`, for which the GI50 with HCT-116, with KM12, in the test with SF-295, with DU-145, in the test on MDA-N and in the test on SK-MEL-5 was > 100 µM (inactive) each time. In addition, the GI50 in the test with IGROV-1, with OVCAR-5, in the test on SNB-19, in the test with A498, with OVCAR-4 and in the test with NCI-H226 was > 100 µM (inactive) throughout. The GI50 with HT-29, in the test with SF-539, with LOX IMVI, with M14, with CAKI-1 and with NCI-H522 was > 100 µM (inactive) each time. Also, the GI50 with NCI-H460 is > 100 µM (inactive).
With `CCOc1nc2sc3c(c2c(=O)n1CCSSCCn1c(OCC)nc2sc4c(c2c1=O)CCCC4)CCCC3`, the GI50 with HCT-116, in the test with KM12, in the test on SF-295, in the test on DU-145, in the test on MDA-N and in the test on SK-MEL-5 was > 100 µM (inactive) throughout. The GI50 in the test with UACC-62, in the test with IGROV-1, in the test on OVCAR-5, with SNB-19, in the test with A498 and in the test on OVCAR-4 was > 100 µM (inactive) each time. The GI50 in the test on NCI-H226 is 56.4 µM (inactive); in the test with HT-29, > 100 µM (inactive); in the test with SF-539, > 100 µM (inactive); with LOX IMVI, > 100 µM (inactive); in the test on M14 it was > 100 µM (inactive); with CAKI-1, > 100 µM (inactive). In the test with NCI-H460, the GI50 is > 100 µM (inactive).
With `CC[C@H]1CN(C)[C@H]2Cc3c([nH]c4ccccc34)C(=O)C[C@H]1C2C(=O)OC` (stereo partly drawn), the GI50 in the test with HCT-116, with KM12, with SF-295, with DU-145, in the test on MDA-N and in the test on SK-MEL-5 was > 100 µM (inactive) each time. In addition, the GI50 in the test with UACC-62, with IGROV-1, in the test with OVCAR-5, in the test on SNB-19, in the test on A498 and in the test on OVCAR-4 was > 100 µM (inactive) each time. The GI50 with NCI-H226, with HT-29, with SF-539, with LOX IMVI, in the test with M14 and with NCI-H522 was > 100 µM (inactive) throughout. Further, in the test with NCI-H460, the GI50 was > 100 µM (inactive).
Take `Nc1ccc2[nH]c(C(=O)N3CC(CCl)c4c3cc(N)c3ccccc43)cc2c1` (stereo not drawn): the GI50 in the test with HCT-116 is < 0.01 µM (active); in the test on KM12 it was 0.0114 µM (active); in the test with SF-295, < 0.01 µM (active); in the test with DU-145 it was < 0.01 µM (active); in the test on MDA-N, < 0.01 µM (active); in the test on SK-MEL-5, < 0.01 µM (active). The GI50 with UACC-62 is < 0.01 µM (active); with IGROV-1, < 0.01 µM (active); in the test with OVCAR-5, < 0.01 µM (active); with SNB-19, < 0.0138 µM (active); in the test with A498 it was < 0.01 µM (active); with OVCAR-4, < 0.01 µM (active). In addition, the GI50 in the test with NCI-H226 was 0.0105 µM (active); in the test with HT-29, < 0.01 µM (active); in the test with SF-539, < 0.01 µM (active); in the test with LOX IMVI, < 0.01 µM (active); with M14, 0.0107 µM (active); with CAKI-1 it was < 0.01 µM (active). Besides, the GI50 in the test on NCI-H460 was < 0.01 µM (active).

The values are drawn from ChEMBL document CHEMBL1201862, “PubChem BioAssay data set” (2004).
